# Experiments:
# [1] = Cytotoxicity against mouse NIH/3T3 cells assessed as cell viability at 1 uM after 24 hrs by WST1 assay; format: cell-based, NIH3T3; settings: read-out: Activity
# [2] = system: MCF7; assay: Cytotoxicity against human MCF7 cells assessed as cell viability at 1 uM after 24 hrs by WST1 assay; format: functional; settings: MCF7, 24 h, read-out: Activity
# [3] = system: MDA-MB-231; assay: Cytotoxicity against human MDA-MB-231 cells assessed as cell viability at 1 uM after 24 hrs by WST1 assay; format: functional; settings: MDA-MB-231, 24 h, read-out: Activity
# [4] = system: MV4-11; assay: Cytotoxicity against human MV4-11 cells assessed as cell viability at 1 uM after 24 hrs by WST1 assay; format: functional; settings: MV4-11, 24 h, read-out: Activity
# [5] = Cytotoxicity against rat L6 cells assessed as cell viability at 1 uM after 24 hrs by WST1 assay; format: cell-based; settings: read-out: Activity
# [6] = Cytotoxicity against human U87MG cells assessed as cell viability at 1 uM after 24 hrs by WST1 assay; format: functional, U-87MG ATCC; settings: U-87 MG, read-out: Activity
Compound,"viability at 24 h, 1 µM [1]",viability at 1 µM [2],viability at 1 µM [3],viability at 1 µM [4],"viability at 24 h, 1 µM [5]",viability at 1 µM [6]
COc1ccc(-c2n[nH]c3ncc(-c4ccccc4NCc4ccccc4)cc23)cc1,99%,98%,109%,97%,102%,95%
CNc1ccccc1-c1cnc2[nH]nc(-c3ccc(OC)cc3)c2c1,106%,101%,114%,86%,109%,100%
COc1ccc(-c2n[nH]c3ncc(-c4cc([N+](=O)[O-])ccc4N)cc23)cc1,99%,102%,114%,92%,92%,97%
COc1ccc(-c2n[nH]c3ncc(-c4c(N)cccc4[N+](=O)[O-])cc23)cc1,102%,97%,123%,93%,110%,104%
COc1ccc(-c2n[nH]c3ncc(-c4ccccc4N)cc23)cc1,94%,102%,101%,89%,108%,94%
Nc1cc(Cl)ccc1-c1cnc2[nH]nc(-c3ccccc3)c2c1,111%,103%,105%,85%,96%,101%
COc1ccc(-c2n[nH]c3ncc(-c4ccc(F)cc4N)cc23)cc1,104%,97%,95%,94%,104%,94%
COc1ccc(-c2n[nH]c3ncc(-c4cccc(F)c4N)cc23)cc1,108%,100%,109%,82%,100%,94%
COC(=O)c1cccc(N)c1-c1cnc2[nH]nc(-c3ccc(OC)cc3)c2c1,101%,89%,110%,90%,105%,102%
COc1ccc(-c2n[nH]c3ncc(-c4cc(Br)ccc4N)cc23)cc1,108%,88%,112%,82%,104%,100%
COc1ccc(-c2n[nH]c3ncc(-c4ccccc4NC(=O)NCc4ccccc4)cc23)cc1,94%,99%,101%,104%,104%,94%
Cc1n[nH]c2ncc(-c3ccc(Cl)cc3N)cc12,103%,102%,107%,91%,102%,99%

# Reference: ChEMBL document CHEMBL3217737, “Discovery of a highly selective FLT3 kinase inhibitor from phenotypic cell viability profiling” (Medchemcomm, 2013)
